What was measured:
[1] = system: rNsp5-S144M recombinant SARS-CoV-2; type: cell-based
[2] = system: rNsp5-L50F/E166V recombinant SARS-CoV-2; type: cell-based

## CC(C)(C)[C@H](NC(=O)C(F)(F)F)C(=O)N1C[C@H]2[C@@H]([C@H]1C(=O)N[C@H](C#N)C[C@@H]1CCNC1=O)C2(C)C [nirmatrelvir]
[1]
  EC50 fold-increase compared to WT: 12.5
[2]
  EC50 fold-increase compared to WT: 24.2

Source: paper PMC10705561 (bioRxiv, 2023)
